Where two headings read alike, the source gives them in different places.
Target: T1, bacterial NAD synthetase enzyme (Bacillus subtilis, UniProt P08164)
T1 sequence (P08164 2-272 limits assumed): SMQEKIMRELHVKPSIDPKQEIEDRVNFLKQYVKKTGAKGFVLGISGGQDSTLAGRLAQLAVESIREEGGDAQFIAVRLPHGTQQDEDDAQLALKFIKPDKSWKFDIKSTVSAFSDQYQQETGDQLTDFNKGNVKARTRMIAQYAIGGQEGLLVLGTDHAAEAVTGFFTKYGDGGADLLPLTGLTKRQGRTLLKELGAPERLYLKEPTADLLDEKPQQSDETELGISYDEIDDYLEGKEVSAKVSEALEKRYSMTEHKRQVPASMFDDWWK
Test: biochemical
Type: biochemical

[1] = compound at 0.2 mM (Table 312B)
[2] = compound at 0.2 mM (Table 312A)

C[N+](C)(C)c1ccc(CC(=O)OCCCCCCCCOc2ccccc2N2CCOCC2)cc1 [Compound 1093]
% Inhibition [1]: 66%

CC(=O)c1ccc2[nH]c(CCCCCCCOC(=O)Cc3ccc[n+](C)c3)cc2c1 [Compound 938]
% Inhibition (compound at 0.25 mM): 98.8%

c1ccc(C(c2ccccc2)(c2ccccc2)c2ccc3[nH]c(CCCCCCC[n+]4cccc5ccccc54)cc3c2)cc1 [Compound 448]
% Inhibition [2]: 2.92%

CC(C)c1ccc2[nH]c(CCCCOC(=O)c3ccc([N+](C)(C)C)cc3)cc2c1 [Compound 889]
IC50: 75 µM | inhibition at 100 µM: 93.6%

NC(=O)c1ccc(OCCCCCCCCOC(=O)c2cccnc2)cc1 [Compound 1014]
% Inhibition [1]: 14%

C[n+]1cccc(C(=O)OCCCCc2cc3ccc(C(F)(F)F)cc3[nH]2)c1 [Compound 913]
% Inhibition (compound at 0.25 mM): 7.6%

c1ccc(-c2ccc3[nH]c(CCC[n+]4ccccc4)cc3c2)cc1 [Compound 324]
% Inhibition [2]: 34.99%

CCCCc1ccc2[nH]c(CCC[n+]3cccc4ccccc43)cc2c1 [Compound 420]
% Inhibition [2]: 9.16%

C[N+](C)(C)c1ccc(CC(=O)OCCCCCCCCOc2ccc(Oc3ccccc3)cc2)cc1 [Compound 1090]
IC50: 21.2 µM | inhibition at 200 µM: 96%

c1ccc(C(c2ccccc2)(c2ccccc2)c2ccc3[nH]c(CCCCCC[n+]4cccc5ccccc54)cc3c2)cc1 [Compound 447]
% Inhibition [2]: 2.30%

COC(=O)c1cc2cc(OCc3ccccc3)ccc2n1CCCCCCCOC(=O)Cc1ccc(N(C)C)cc1 [Compound 964]
% Inhibition (compound at 0.05 mM): 1.18%

C[n+]1cccc(C(=O)OCCCCCCCCOc2ccccc2C(N)=O)c1 [compound 1060]
% Inhibition [1]: 19%

C[n+]1cccc(C(=O)OCCCOc2ccc(Oc3ccccc3)cc2)c1 [Compound 1070]
IC50: 36.2 µM | inhibition at 200 µM: 82%

O=C(OCCCCCCCCOc1ccc(C(=O)c2ccccc2)cc1)c1cccnc1 [Compound 1013]
% Inhibition [1]: 29%

C[n+]1ccc(C(=O)OCCCCCCCCc2cc3cc(C(=O)c4ccccc4)ccc3[nH]2)cc1 [Compound 912]
% Inhibition (compound at 0.25 mM): 27.6%

O=[N+]([O-])c1ccc2[nH]c(CCC[n+]3ccccc3)cc2c1 [Compound 330]
% Inhibition [2]: 23.96%

FC(F)(F)c1ccc2cc(CCCC[n+]3ccccc3)[nH]c2c1 [Compound 715]
% Inhibition (compound at 0.1 mM (Table 314)): 20.73%

C[N+](C)(C)c1ccc(CC(=O)OCCCCCCCCn2ccc3cc(NC(=O)c4ccccc4)ccc32)cc1 [Compound 1104]
IC50: 61 µM

C[n+]1cccc(C(=O)OCCCOc2ccccc2C=CC(=O)c2ccccc2)c1 [compound 1066]
inhibition at 200 µM: 70%

C[N+](C)(C)c1cccc(C(=O)OCCCCc2cc3ccc(C(F)(F)F)cc3[nH]2)c1 [Compound 868]
% Inhibition (compound at 0.25 mM): 13.5%

CCCCc1oc2ccccc2c1C(=O)c1ccc(OCCCOC(=O)c2ccc[n+](C)c2)cc1 [Compound 1064]
IC50: 37.5 µM | inhibition at 200 µM: 92%

c1ccc(Oc2ccc3[nH]c(CCC[n+]4ccccc4)cc3c2)cc1 [Compound 348]
% Inhibition [2]: 44.42%

O=[N+]([O-])c1cc([N+](=O)[O-])c2[nH]c(CCCCCCCC[n+]3ccc4ccccc4c3)cc2c1 [Compound 527]
% Inhibition [2]: 73.78%

COC(=O)C=Cc1cn(CCCCC[n+]2cccc(C(=O)OC)c2)c2ccccc12 [Compound 268]
% Inhibition [2]: 11.23%

COC(=O)c1cc2ccccc2n1CCCCCCCCOC(=O)c1ccc[n+](C)c1 [Compound 973]
IC50: 45 µM | inhibition at 100 µM: 97.8%

C[n+]1cccc(C(=O)OCCCCCCCCCn2ccc3ccccc32)c1 [Compound 970]
IC50: 55 µM | inhibition at 200 µM: 96.7%

Fc1ccc2[nH]c(CCCC[n+]3ccccc3)cc2c1 [Compound 343]
% Inhibition [2]: 10.82%

CCCCc1oc2ccccc2c1C(=O)c1ccc(OCCCCCCCCOC(=O)Cc2ccc([N+](C)(C)C)cc2)cc1 [Compound 1084]
IC50 (NAD synthetase enzyme inhibition, read-out: IC50 of Compounds): 12.5 µM | % Inhibition [1]: 106%

CCCCc1ccc2[nH]c(CCCCC[n+]3ccccc3)cc2c1 [Compound 314]
% Inhibition (compound at 0.1 mM (Table 314)): 9.19%

— patent US6727237B2, “Inhibitors of bacterial NAD synthetase” (priority 1998, dated 2004)
